How the values were obtained:
Assay type in all cases: in vivo
POI mice [1] = assay: Serum estradiol (E2) level in POI mice; conditions: for E2: serum, after 12 days 100 mg/kg/d oral
From the text: (§1) Biomarkers mentioned herein, such as follicle stimulating hormone (FSH), estrogen (e.g., E2), and superoxide dismutase (SOD), malondialdehyde (MDA), relative reactive oxygen species (ROS), and lactate dehydrogenase (LDH), etc., can be detected using methods commonly known in the field. Detection methods typically cover methods that quantify the level of a biomarker in a sample (quantitative methods). Which of the following methods are suitable for qualitative and/or quantitative detection of biomarkers is generally known to those skilled in the field. Samples can be conveniently measured, for example for proteins using immunoassays such as ELISA, RIA, etc., which are commercially available.
(§2) After 12 days of administration, half of the mice in each group were sacrificed, and their blood was collected and kept still. The serum was separated after centrifugation at 4500 rpm and stored in a refrigerator at −80° C. for future use to measure levels of follicle stimulating hormone, estrogen, and the indexes of oxidative stress such as superoxide dismutase (SOD) and malondial dehyde (MDA).
as §2, with “kept in” for “kept”, “levals” for “levels”, “malondialdehyde” for “malondial dehyde”

[2] = Body weight of POI model mice before modeling, after modeling and after treatment; conditions: for Body weight before modeling: D 0, 100 mg/kg/d oral; for Body weight after modeling: D 7, 100 mg/kg/d oral; for Body weight after treatment: D 13, 100 mg/kg/d oral
Protocol: Animal model establishment: A total of 34 C57 female mice (8-week-old) were selected and intraperitoneally injected with the ratio of 120 mg/kg cyclophosphamide (SIGMA) and 30 mg/kg Busulfan (Aladdin) once a day for 1 week at the dose of 0.1 mL/10 g to establish the model of POI.
Grouping: 34 POI model mice were randomly divided into four groups: sodium fumarate (SF) treatment group (n=9), hyodeoxycholic acid (HDCA) treatment group (n=8), sodium fumarate plus hyodeoxycholic acid (mass ratio 1:1) combination (SF+HDCA) treatment group (n=8) and normal saline (Vehicle) group (n=9). Mice in the SF group were given oral administration of SF at the ratio of 100 mg/kg/d body weight, mice in the HDCA group were given oral administration of HDCA at the ratio of 100 mg/kg/d body weight, and mice in the combination group were given oral administration of SF and HDCA at the ratio of 100 mg/kg/d body weight. SF and HDCA were dissolved with 0.9% normal saline when used. Mice in the vehicle group were given the same amount of normal saline orally. All the mice were treated consecutively for 12 days.
Body weight were recorded at three time points, before modeling (at the beginning of treatment), after modeling and after treatment.
Animal model establishment: A total of 24 C57 mice (8-week-old) were selected and intraperitoneally injected with the ratio of 120 mg/kg cyclophosphamide and 30 mg/kg Busulfan once a day for 1 week at the dose of 0.1 mL/10 g to establish the model of POI.
Grouping: 24 POI model mice were randomly divided into four groups: dimethyl fumarate (DMF) treatment group (n=5), hyodeoxycholic acid (HDCA) treatment group (n=6), dimethyl fumarate plus hyodeoxycholic acid (mass ratio=1:1) combination (DMF+HDCA) treatment group (n=7) and normal saline (Vehicle) group (n=6). Mice in the DMF treatment group were orally administrated at the ratio of 100 mg/kg/d body weight. Mice in the HDCA treatment group were given oral administration of HDCA at the ratio of 100 mg/kg/d body weight, and mice in the combination group were given oral administration of DMF and HDCA at the ratio of 100 mg/kg/d body weight. Once daily, DMF and HDCA were dissolved in 0.9% normal saline when used. Mice in normal saline group were given the same amount of normal saline orally every day. The drug was administered for 12 days.
Body weight were recorded at three time points, before modeling (at the beginning of treatment, the 0th day), after modeling (the 7th day) and after treatment (the 13th day).
The body weight of POI model mice of each group was measured before modeling, after modeling and after treatment.

POI model mice = assay: Estrous cycle observation by vaginal smear cytology in POI model mice
POI mice [3] = assay: Serum malondialdehyde (MDA) level, oxidative stress
From the text: as §1, §2
as §2, with “kept in” for “kept”, “levals” for “levels”, “malondialdehyde” for “malondial dehyde”
The oxidative stress hypothesis believes that the reduction of antioxidant components in the body leads to the weakening of the ability to remove free radicals, which leads to oxidative damage of biological macromolecules, and the imbalance of cellular oxidative and antioxidant functions, which leads to oxidative stress, and then leads to disease and aging. Oxygen free radicals act on unsaturated fatty acids of lipids to generate lipid peroxides, including malondialdehyde (MDA) and so on. The antioxidant defense system of scavenging free radicals includes superoxide dismutase (SOD) and so on. Recently, oxidative stress has been reported to be associated with ovarian aging and POI in primates. Therefore, this embodiment examined the effects of DMF, HDCA, and DMF+HDCA on oxidative stress in mice with premature ovarian failure, and the results are shown in Table 5, FIGS. 9 to 12.

POI mice [4] = assay: Serum lactate dehydrogenase (LDH) level
From the text: as §1

[5] = Example 2, during drug administration, FIG. 5B
[6] = serum, POI mice after treatment

## C[C@H](CCC(=O)O)[C@H]1CC[C@H]2[C@@H]3C[C@H](O)[C@@H]4C[C@H](O)CC[C@]4(C)[C@H]3CC[C@]12C [HDCA, hyodeoxycholic acid, reference compound]
POI mice [1]; Example 1, FIG. 7
  Serum E2 level compared with the normal saline group: tendency to increase
POI mice [1]; Example 2, FIG. 8, not statistically significant
  Serum E2 level compared with the normal saline group: certain tendency to decrease
POI mice [1]; Example 1 POI mice
  E2: 49.69 ± 7.11 pg/mL
POI mice [1]; Example 2 POI mice
  E2: 42.96 ± 14.28 pg/mL
[2]; Example 1 POI mice
  Body weight before modeling: 18.79 ± 0.80 g
  Body weight after modeling: 17.69 ± 1.03 g
  Body weight after treatment: 17.96 ± 1.20 g
[2]; Example 1 POI mice, FIG. 2A
  Weight recovery after chemotherapy: significantly beneficial
[2]; Example 2 POI mice
  Body weight before modeling: 18.32 ± 1.61 g
  Body weight after modeling: 16.31 ± 2.02 g
  Body weight after treatment: 17.10 ± 2.24 g
[2]; Example 2 POI mice, FIG. 2B
  Weight recovery after chemotherapy: significantly beneficial
POI model mice; Example 2
  Effect on mice with premature ovarian failure (conclusion from estrous cycle): preventive and therapeutic effects
POI model mice; [5]
  Average rate of diestrum (D) in estrous cycle: 52.08%
  Average rate of estrous (E) stage in estrous cycle: 6.25%
  Average rate of metestrum (M) in estrous cycle: 12.50%
  Average rate of proestrous (P) in estrous cycle: 29.17%
POI model mice; Example 2, 12 days observation, DMF n=5, HDCA n=6, DMF and HDCA n=7
  Number of mice with estrous cycle recovered: 3 mice
POI mice [3]; FIG. 10, no significant difference
  MDA activity compared with the normal saline group: reduced to some extent
POI mice [3]; [6]
  MDA: 2.86 ± 4.39 nmol/mL
POI mice [4]; FIG. 12
  Activity of LDH compared with the normal saline group: reduced to some extent
POI mice [4]; [6]
  LDH: 2821.58 ± 318.30 U/mL

— patent US12622890B2, “Use of the active compound in the prevention or treatment of ovarian dysfunction diseases” (INSTITUTE OF BIOPHYSICS, CHINESE ACADEMY OF SCIENCES, priority 2022, dated 2026)
